Measurements: patent publication US4590178A (Ajinomoto Company, Incorporated, priority 1982, dated 1986)

Test system: spontaneously hypertensive rats
Assay: Antihypertensive activity: systolic blood pressure measured indirectly on conscious SHR after peroral dosing
Assay type: in vivo, rat
Conditions: for Systolic Blood Pressure, Pretreatment: SHR (male, 13 months, 2 per sample), before 35 mg/kg peroral single dose; for Systolic Blood Pressure, 4 hrs after administration / Δ Blood Pressure: SHR; for Systolic Blood Pressure, 4 hrs after administration: 4 hours after 35 mg/kg peroral single dose; for Δ Blood Pressure: 4 hours after 35 mg/kg peroral single dose versus pretreatment
Experimental: The antihypertensive activity of part of the amino acid derivatives prepared above, was determined.
As subject animals 2 SHR were used which had been trained enough and been confirmed to be hypertensive spontaneously hypertensive rats (male, 13 months of age, the body weight of 400 to 440 g) per sample.
As an instrument for measuring the blood pressure a Programmed Electro-Sphygmomanometer PE-300 (Narco Co., U.S.A.) was used, and the blood pressure was indirectly measured on conscious rats.
An aqueous solution or suspension of a sample (35 mg/kg) was once force-fed into the stomach by means of a peroral probe.
An antihypertensive activity of part of the amino acid derivatives prepared above was determined.
As subject animals there were used 2 SHR which had been trained enough and been confirmed to be hypertensive spontaneously hypertensive rats (male, 13 months of age, the body weight of 400~440 g) per sample.
As an instrument for measuring the blood pressure there was used Programmed Electro-Sphygmomanometer PE-300 (Narco Co., U.S.A.), and the blood pressure was indirectly measured on conscious rats.
An antihypertensive activity of the product prepared above was determined.

Molecule	Systolic Blood Pressure, Pretreatment	Systolic Blood Pressure, 4 hrs after administration	Δ Blood Pressure
Dibenzylphosphoryl-L-alanyl-L-prolyl-L-proline dicyclohexylamine salt [Example 74]	195 mm Hg	165 mm Hg	-30 mm Hg
COP(=O)(CCc1ccccc1)N[C@@H](CCSC)C(=O)N1CCC[C@H]1C(=O)N1CCC[C@H]1C(=O)O.NC(N)=NCCC[C@H](N)C(=O)O (stereo partly drawn) [Example 41, N--(O--methyl-P--phenethylphosphonyl)-L-methionyl-L-prolyl-L-proline L-arginine salt]	203 mm Hg	172 mm Hg	-31 mm Hg
N-Phenethylphosphonyl-L-methionyl-L-prolyl-L-proline 2 sodium salt [Example 34]	183 mm Hg	154 mm Hg	-29 mm Hg
CSCC[C@H](NP(=O)(CCc1ccccc1)OCc1ccccc1)C(=O)N1CCC[C@H]1C(=O)N1CCC[C@H]1C(=O)O.NC(N)=NCCC[C@H](N)C(=O)O (stereo partly drawn) [Example 35, N-(O-Benzyl-P-phenethylphosphonyl)-L-methionyl-L-prolyl-L-proline L-arginine salt]	191 mm Hg	158 mm Hg	-33 mm Hg
C[C@H](NP(=O)(CCc1ccccc1)OCc1ccccc1)C(=O)N1CCC[C@H]1C(=O)N1CCC[C@H]1C(=O)[O-].[Na+] (stereo partly drawn) [Example 42, N--(O--benzyl-P--phenethylphosphonyl)-L-alanyl-L-prolyl-L-proline sodium salt]	194 mm Hg	180 mm Hg	-14 mm Hg
Dibenzylphoshoryl-L-alanyl-L-prolyl-L-alanine L-arginine salt [Example 12]	193 mm Hg	182 mm Hg	-11 mm Hg
Dibenzylphosphoryl-L-alanyl-L-prolyl-L-serine L-arginine salt [Example 2]	202 mm Hg	180 mm Hg	-22 mm Hg
Phosphoryl-L-alanyl-L-prolyl-L-proline L-arginine salt [Example 8]	196 mm Hg	177 mm Hg	-19 mm Hg
Diethylphosphoryl-L-lysyl-L-prolyl-L-proline calcium salt [Example 56]	204 mm Hg	181 mm Hg	-23 mm Hg
C[C@H](NP(=O)(OCc1ccccc1)OCc1ccccc1)C(=O)N1CCC[C@H]1C(=O)NCC(=O)O.N=C(N)NCCC[C@H](N)C(=O)O [Example 6, Dibenzylphosphory-L-alanyl-L-prolyl-glycine L-arginine salt]	212 mm Hg	190 mm Hg	-22 mm Hg
C[C@H](NP(=O)(O)CCc1ccccc1)C(=O)N(CC(=O)N1CCC[C@H]1C(=O)[O-])C1Cc2ccccc2C1.C[C@H](NP(=O)(O)CCc1ccccc1)C(=O)N(CC(=O)N1CCC[C@H]1C(=O)[O-])C1Cc2ccccc2C1.[Na+].[Na+] [Example 29, N-Phenethylphosphonyl-L-alanyl-N-(2-indanyl)glycyl-L-proline 2 sodium salt]	203 mm Hg	172 mm Hg	-31 mm Hg
Dibenzylphosphoryl-L-prolyl-L-tyrosine L-arginine salt [Example 4]	207 mm Hg	195 mm Hg	-12 mm Hg
N=C(N)NCCC[C@H](NP(=O)(Cc1ccccc1)Cc1ccccc1)C(=O)N1CCC[C@H]1C(=O)N1CCC[C@H]1C(=O)O [Example 21, Dibenzylphosphoryl-L-arginyl-L-prolyl-L-proline]	191 mm Hg	167 mm Hg	-24 mm Hg
Dibenzylphosphoryl-L-alanyl-L-prolyl-D-proline L-arginine salt [Example 15]	182 mm Hg	167 mm Hg	-15 mm Hg
NCCCC[C@H](NP(=O)(O)CCc1ccccc1)C(=O)N1CCC[C@H]1C(=O)N1CCC[C@H]1C(=O)[O-].NCCCC[C@H](NP(=O)(O)CCc1ccccc1)C(=O)N1CCC[C@H]1C(=O)N1CCC[C@H]1C(=O)[O-].[Na+].[Na+] [Example 36, N^α -Phenethylphosphonyl-L-lysyl-L-prolyl-L-proline 2 sodium salt]	200 mm Hg	177 mm Hg	-23 mm Hg
Dibenzylphosphoryl-L-alanyl-L-prolyl-L-proline calcium salt [Example 53]	220 mm Hg	188 mm Hg	-32 mm Hg
C[C@H](NP(=O)(CCc1ccccc1)OCc1ccccc1)C(=O)N(CC(=O)N1CCC[C@H]1C(=O)O)C1Cc2ccccc2C1.NC(N)=NCCC[C@H](N)C(=O)O (stereo partly drawn) [Example 30, N-(O-Benzyl-P-phenethylphosphonyl)-L-alanyl-N-(2-indanyl)glycyl-L-proline L-arginine salt]	184 mm Hg	154 mm Hg	-30 mm Hg
Diethylphosphoryl-L-lysyl-L-prolyl-L-proline L-arginine salt [Example 23]	190 mm Hg	165 mm Hg	-25 mm Hg
C[C@H](NP(=O)(OCc1ccccc1)OCc1ccccc1)C(=O)N1CCC[C@H]1C(=O)N1C[C@H](O)C[C@H]1C(=O)O.N=C(N)NCCC[C@H](N)C(=O)O (relative stereo) [Example 16, Dibenzylphosphoryl-L-alanyl-L-prolyl-trans-L-hydroxyproline L-arginine salt]	181 mm Hg	162 mm Hg	-19 mm Hg
CSCC[C@H](NP(=O)(OCc1ccccc1)OCc1ccccc1)C(=O)N1CCC[C@H]1C(=O)N1CCC[C@H]1C(=O)O.N=C(N)NCCC[C@H](N)C(=O)O [Example 33, Dibenzylphosphoryl-L-methionyl-L-propyl-L-proline L-arginine salt]	186 mm Hg	168 mm Hg	-18 mm Hg
C[C@H](NP(=O)(OCc1ccccc1)OCc1ccccc1)C(=O)N1C[C@H](O)C[C@H]1C(=O)N1CCC[C@H]1C(=O)O (relative stereo) [Example 17, Dibenzylphosphoryl-L-alanyl-trans-L-hydroxyprolyl-L-proline]	182 mm Hg	163 mm Hg	-19 mm Hg
C[C@H](NP(=O)([O-])CCc1ccccc1)C(=O)N1CCC[C@H]1C(=O)N1CCC[C@H]1C(=O)[O-].[Na+].[Na+] [Example 28, N-phenethylphosphonyl-L-alanyl-L-prolyl-L-proline 2 sodium salt]	183 mm Hg	151 mm Hg	-32 mm Hg
Dibenzylphosphoryl-L-alanyl-L-prolyl-L-proline L-arginine salt [Example 1]	205 mm Hg	170 mm Hg	-35 mm Hg
Dibenzylphosphoryl-L-alanyl-L-prolyl-L-proline L-lysine salt [Example 24]	192 mm Hg	161 mm Hg	-31 mm Hg
C[C@H](NP(=O)(OCc1ccccc1)OCc1ccccc1)C(=O)N1CCC[C@H]1C(=O)N1CCC[C@H]1C(=O)[O-].[K+] [Example 32, Dibenzylphosporyl-L-alanyl-L-propyl-L-Proline potassium salt]	185 mm Hg	160 mm Hg	-25 mm Hg
Diethylphosphoryl-L-methionyl-L-prolyl-L-proline L-argine salt [Example 44]	189 mm Hg	179 mm Hg	-10 mm Hg
Dibenzylphosphoryl-L-isoleucyl-L-prolyl-L-proline L-arginine salt [Example 18]	192 mm Hg	171 mm Hg	-21 mm Hg
C[C@H](NP(=O)(OCc1ccccc1)OCc1ccccc1)C(=O)N1CCC[C@H]1C(=O)O.NC(N)=NCCC[C@H](N)C(=O)O [*, Dibenzyl phosphorylL-alanyl-L-proline Larginine salt, reference compound]	198 mm Hg	193 mm Hg	-5 mm Hg
